Measured values published in patent publication US7056938B1, “Method for scavenging radicals with urocanic acid, derivatives and analogues” (Academisch Ziekenhuis Bij De Univ., priority 1999, dated 2006).

Assay: hydroxyl-radical-generating systems with copper ions (Cu2+)
Type: physicochemical
Description: UCA isomers (10 or 40 μM) were oxidized with a hydroxyl-radical-generating system that consisted of various concentrations of ferrous ions (10–500 μM) and a fixed hydrogen peroxide concentration of 500 μM (the Fenton reagent), either in a sodium phosphate (10 or 20 mM) medium of pH 7.2, or in ultrapure water. In addition, two hydroxyl-radical-generating systems with copper ions (Cu^2+) were used, consisting of 50 μM Cu^2+ with either 500 μM hydrogen peroxide or 5 mM ascorbic acid.
Evaluation of the data was difficult with the ascorbate system, because several interfering peaks had occurred in the chromatograms, which were probably derived from ascorbic acid and its oxidation products.
When another hydroxyl-radical-generating system, based on copper ions (Cu^2+) was investigated, the combination of Cu^2+/ascorbic acid/hydrogen peroxide caused a large breakdown or trans-UCA (Table 3) and a moderate yield of UCA oxidation products, in favor of ImCOOH. […] For the situation in vivo, one must remember that the epidermal copper content is lower than iron (29).

`O=C(O)/C=C/c1cnc[nH]1` [trans-Urocanic acid, Trans-urocanic acid] showed a trans-UCA left (Cu2+ (50 μM) and ascorbic acid (5 mM) without hydrogen peroxide) of 3% and a trans-UCA left (Cu2+ (50 μM) and hydrogen peroxide (500 μM), without ascorbic acid) of 88%.
